The source made the active and inactive calls.
Key:
[1] = target: NACHT, LRR and PYD domains-containing protein 3 (Homo sapiens, UniProt Q96P20); assay: NALP3 inhibitors in yeast, dose response, luminescent (AID 488799); type: functional
Cytochrome P450 2C9 = Cytochrome P450 2C9 (Homo sapiens, UniProt P11712)
[2] = target: DNA (cytosine-5)-methyltransferase 1 (Homo sapiens, UniProt P26358); assay: DNMT1 methyltransferase inhibitors, confirmation, biochemical, fluorescent molecular beacon (AID 602386); type: functional
Cytochrome P450 2C19 = Cytochrome P450 2C19 (Homo sapiens, UniProt P33261); assay: Cytochrome panel assay with activity outcomes. Panel member name: p450-cyp2c19 Compounds with AC50 equal or less than 10 uM are considered active; type: functional; conditions: read-out: AC50
Cytochrome P450 2C19, sequence (P33261 whole entry): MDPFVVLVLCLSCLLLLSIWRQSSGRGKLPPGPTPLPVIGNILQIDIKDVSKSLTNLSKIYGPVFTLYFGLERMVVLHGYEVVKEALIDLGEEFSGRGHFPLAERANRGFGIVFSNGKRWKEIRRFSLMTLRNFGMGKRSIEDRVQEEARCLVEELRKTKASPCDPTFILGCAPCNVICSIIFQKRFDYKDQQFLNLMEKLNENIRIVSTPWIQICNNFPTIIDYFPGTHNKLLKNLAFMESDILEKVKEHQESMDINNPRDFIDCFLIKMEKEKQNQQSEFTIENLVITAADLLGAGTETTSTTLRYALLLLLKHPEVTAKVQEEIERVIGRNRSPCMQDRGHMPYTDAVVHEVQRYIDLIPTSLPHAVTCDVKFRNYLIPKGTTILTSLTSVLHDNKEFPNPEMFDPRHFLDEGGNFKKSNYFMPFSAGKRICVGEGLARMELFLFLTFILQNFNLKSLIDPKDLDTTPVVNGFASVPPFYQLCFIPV

[3] = THP-1 cell cytotoxicity, dose response, cytotoxicity control for Vif-APOBEC3G degradation inhibitor project, THP-1 cells (AID 1117359); type: functional; conditions: Human immunodeficiency virus 1, THP-1
HeLa = assay: HeLa cell cytotoxicity, dose response, cytotoxicity control, 24 h, cherry-picked samples (AID 504726); type: functional, cell-based; conditions: Homo sapiens;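 note: potency for cytotoxicity as loss of luminescence signal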
[4] = target: Dual specificity protein phosphatase 3 (Homo sapiens, UniProt P51452); assay: VHR1 inhibitor Ki determination, SAR follow-up, biochemical, colorimetric (AID 2004)
[5] = target: Signal transducer and activator of transcription 3 (Homo sapiens, UniProt P40763); assay: STAT3 activators, late-stage profile, late-stage follow-up, cell-based, STAT1 reporter, BCL3 qPCR, cytotoxicity, panel member STAT3 Activation (AID 2049)
Signal transducer and activator of transcription 3, sequence (P40763 whole entry): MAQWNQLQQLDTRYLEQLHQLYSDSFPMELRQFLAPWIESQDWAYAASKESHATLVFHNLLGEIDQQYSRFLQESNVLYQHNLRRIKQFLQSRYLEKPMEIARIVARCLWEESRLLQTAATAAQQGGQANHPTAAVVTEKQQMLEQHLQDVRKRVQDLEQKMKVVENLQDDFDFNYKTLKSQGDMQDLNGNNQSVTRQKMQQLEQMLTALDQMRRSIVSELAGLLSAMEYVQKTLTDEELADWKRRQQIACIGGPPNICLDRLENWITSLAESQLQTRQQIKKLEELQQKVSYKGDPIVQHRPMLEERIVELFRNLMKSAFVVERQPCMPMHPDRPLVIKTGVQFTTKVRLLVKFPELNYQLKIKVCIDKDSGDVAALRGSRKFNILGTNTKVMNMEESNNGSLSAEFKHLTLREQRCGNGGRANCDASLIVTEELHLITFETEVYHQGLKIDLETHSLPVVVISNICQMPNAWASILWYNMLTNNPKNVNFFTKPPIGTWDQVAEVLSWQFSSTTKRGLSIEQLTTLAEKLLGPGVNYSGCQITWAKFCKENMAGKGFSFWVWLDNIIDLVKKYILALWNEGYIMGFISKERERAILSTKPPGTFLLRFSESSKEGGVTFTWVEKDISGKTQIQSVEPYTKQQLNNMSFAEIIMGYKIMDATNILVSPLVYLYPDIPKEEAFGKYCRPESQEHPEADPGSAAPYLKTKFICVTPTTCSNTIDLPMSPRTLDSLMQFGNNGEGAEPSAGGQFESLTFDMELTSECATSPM

Wee1-like protein kinase = Wee1-like protein kinase (Homo sapiens, UniProt P30291); assay: G2/M cell cycle arrest in HeLa, late-stage follow-up, mechanism study for Wee1 degradation inhibitor project, FACS, panel member Wee1 Degradation (AID 2088)
Wee1-like protein kinase, sequence (P30291 whole entry): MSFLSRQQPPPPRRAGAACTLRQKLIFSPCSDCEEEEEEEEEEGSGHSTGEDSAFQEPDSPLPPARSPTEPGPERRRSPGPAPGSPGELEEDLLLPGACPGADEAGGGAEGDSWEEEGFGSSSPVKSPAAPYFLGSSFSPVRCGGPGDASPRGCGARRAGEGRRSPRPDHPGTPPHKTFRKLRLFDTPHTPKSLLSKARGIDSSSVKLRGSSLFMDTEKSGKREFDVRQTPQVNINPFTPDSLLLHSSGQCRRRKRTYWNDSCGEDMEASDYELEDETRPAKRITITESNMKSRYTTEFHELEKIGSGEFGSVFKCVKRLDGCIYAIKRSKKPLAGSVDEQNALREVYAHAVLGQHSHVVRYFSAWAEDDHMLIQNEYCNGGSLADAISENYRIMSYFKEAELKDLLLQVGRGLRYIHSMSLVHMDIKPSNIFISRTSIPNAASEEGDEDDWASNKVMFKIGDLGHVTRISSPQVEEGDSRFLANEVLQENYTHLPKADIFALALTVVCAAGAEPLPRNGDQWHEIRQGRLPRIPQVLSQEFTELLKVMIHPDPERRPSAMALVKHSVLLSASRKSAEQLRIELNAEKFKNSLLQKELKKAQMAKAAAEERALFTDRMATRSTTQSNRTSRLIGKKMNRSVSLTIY

[6] = target: G2/mitotic-specific cyclin-B1 (Homo sapiens, UniProt P14635); assay: G2/M cell cycle arrest in HeLa, late-stage follow-up, mechanism study for Wee1 degradation inhibitor project, FACS, panel member Cyclin B Degradation (AID 2088)
G2/mitotic-specific cyclin-B1, sequence (P14635 whole entry): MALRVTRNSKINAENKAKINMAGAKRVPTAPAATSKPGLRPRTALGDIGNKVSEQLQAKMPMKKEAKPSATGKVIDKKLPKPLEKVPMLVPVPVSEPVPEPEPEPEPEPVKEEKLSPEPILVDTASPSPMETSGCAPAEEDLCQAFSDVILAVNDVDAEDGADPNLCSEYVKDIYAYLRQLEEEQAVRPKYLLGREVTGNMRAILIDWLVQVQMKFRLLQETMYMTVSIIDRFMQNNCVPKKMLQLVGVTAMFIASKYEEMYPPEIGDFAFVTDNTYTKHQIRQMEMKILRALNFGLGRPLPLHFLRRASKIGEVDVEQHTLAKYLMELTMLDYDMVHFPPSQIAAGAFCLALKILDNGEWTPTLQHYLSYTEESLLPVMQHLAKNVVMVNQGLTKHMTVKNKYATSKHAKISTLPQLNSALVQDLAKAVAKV

[7] = Luminescence Cell-Based Dose Retest to Confirm Inhibitors of Cancer Stem Cells. [Related pubchem assays (depositor defined):AID2717, AID2721]; type: functional; conditions: Homo sapiens
[8] = target: T1, Ubiquitin-conjugating enzyme E2 N (Homo sapiens, UniProt P61088); type: functional;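 note: Dose-response confirmation in a TR-FRET assay detecting UBC13-driven polyubiquitin chain formation, inhibition measured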
T1 sequence (P61088 whole entry): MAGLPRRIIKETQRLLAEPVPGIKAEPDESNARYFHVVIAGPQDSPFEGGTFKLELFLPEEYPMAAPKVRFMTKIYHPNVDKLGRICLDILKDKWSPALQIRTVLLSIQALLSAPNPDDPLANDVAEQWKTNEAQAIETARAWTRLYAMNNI

[9] = target: Cyclin-dependent kinase 5/CDK5 activator 1 (Homo sapiens, UniProt Q00535); assay: CDK5/p35 kinase inhibitors, dose response, biochemical, cherry-picked samples, set 2 (AID 504545)
Cyclin-dependent kinase 5/CDK5 activator 1, sequence (Q00535 whole entry): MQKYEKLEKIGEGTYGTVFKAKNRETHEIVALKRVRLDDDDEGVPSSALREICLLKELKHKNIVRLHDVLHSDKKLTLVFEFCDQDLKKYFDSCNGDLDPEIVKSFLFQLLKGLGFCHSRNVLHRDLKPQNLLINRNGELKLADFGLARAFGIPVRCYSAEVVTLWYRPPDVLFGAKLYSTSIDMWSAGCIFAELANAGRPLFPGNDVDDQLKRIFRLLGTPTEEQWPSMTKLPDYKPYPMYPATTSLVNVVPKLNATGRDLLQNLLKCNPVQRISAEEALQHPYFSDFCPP
Cyclin-dependent kinase 5/CDK5 activator 1, sequence (Q15078 whole entry, further chain): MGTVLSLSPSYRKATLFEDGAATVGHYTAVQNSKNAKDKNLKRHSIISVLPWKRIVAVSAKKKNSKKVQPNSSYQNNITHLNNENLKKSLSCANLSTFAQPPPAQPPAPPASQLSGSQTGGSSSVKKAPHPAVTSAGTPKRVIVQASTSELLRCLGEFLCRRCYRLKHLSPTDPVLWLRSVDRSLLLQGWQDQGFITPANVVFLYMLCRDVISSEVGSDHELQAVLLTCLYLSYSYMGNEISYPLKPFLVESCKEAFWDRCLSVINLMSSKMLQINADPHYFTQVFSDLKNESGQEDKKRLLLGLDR

[10] = target: Metabotropic glutamate receptor 4 (Homo sapiens, UniProt Q14833); assay: Modulation of the Metabotropic Glutamate Receptor mGluR4: Potency at human mGluR4. Modulation of intracellular Ca2+ using Fluo-4, AM, in CHO expressing recombinant receptor [Related pubchem assays (depositor defined):AID2437, AID2807]; type: functional, cell-based
Metabotropic glutamate receptor 4, sequence (Q14833 whole entry): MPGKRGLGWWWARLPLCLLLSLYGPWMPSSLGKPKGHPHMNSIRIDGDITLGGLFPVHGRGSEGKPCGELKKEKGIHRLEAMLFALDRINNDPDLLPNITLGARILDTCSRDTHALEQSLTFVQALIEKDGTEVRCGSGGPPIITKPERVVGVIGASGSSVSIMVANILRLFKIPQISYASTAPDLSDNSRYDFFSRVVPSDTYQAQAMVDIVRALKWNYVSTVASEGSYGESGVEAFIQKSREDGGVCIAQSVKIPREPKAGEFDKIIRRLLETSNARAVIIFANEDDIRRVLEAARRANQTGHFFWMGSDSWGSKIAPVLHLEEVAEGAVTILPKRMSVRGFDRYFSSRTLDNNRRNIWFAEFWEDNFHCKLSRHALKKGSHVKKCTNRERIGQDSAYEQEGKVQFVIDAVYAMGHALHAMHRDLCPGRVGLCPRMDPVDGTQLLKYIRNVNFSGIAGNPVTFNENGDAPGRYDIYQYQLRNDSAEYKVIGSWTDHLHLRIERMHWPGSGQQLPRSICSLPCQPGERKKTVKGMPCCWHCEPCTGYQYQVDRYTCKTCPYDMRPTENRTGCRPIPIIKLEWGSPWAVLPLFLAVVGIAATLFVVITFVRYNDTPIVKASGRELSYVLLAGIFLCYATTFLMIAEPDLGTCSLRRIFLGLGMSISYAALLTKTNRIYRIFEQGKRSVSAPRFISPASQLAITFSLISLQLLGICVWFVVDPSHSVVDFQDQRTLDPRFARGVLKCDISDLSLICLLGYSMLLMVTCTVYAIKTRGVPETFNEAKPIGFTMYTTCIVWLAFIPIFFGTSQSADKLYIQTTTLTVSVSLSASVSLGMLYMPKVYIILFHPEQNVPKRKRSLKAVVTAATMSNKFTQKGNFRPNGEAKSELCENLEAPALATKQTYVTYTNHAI

NACHT, LRR and PYD domains-containing protein 3, sequence (Q96P20 whole entry, the tested form may be a part): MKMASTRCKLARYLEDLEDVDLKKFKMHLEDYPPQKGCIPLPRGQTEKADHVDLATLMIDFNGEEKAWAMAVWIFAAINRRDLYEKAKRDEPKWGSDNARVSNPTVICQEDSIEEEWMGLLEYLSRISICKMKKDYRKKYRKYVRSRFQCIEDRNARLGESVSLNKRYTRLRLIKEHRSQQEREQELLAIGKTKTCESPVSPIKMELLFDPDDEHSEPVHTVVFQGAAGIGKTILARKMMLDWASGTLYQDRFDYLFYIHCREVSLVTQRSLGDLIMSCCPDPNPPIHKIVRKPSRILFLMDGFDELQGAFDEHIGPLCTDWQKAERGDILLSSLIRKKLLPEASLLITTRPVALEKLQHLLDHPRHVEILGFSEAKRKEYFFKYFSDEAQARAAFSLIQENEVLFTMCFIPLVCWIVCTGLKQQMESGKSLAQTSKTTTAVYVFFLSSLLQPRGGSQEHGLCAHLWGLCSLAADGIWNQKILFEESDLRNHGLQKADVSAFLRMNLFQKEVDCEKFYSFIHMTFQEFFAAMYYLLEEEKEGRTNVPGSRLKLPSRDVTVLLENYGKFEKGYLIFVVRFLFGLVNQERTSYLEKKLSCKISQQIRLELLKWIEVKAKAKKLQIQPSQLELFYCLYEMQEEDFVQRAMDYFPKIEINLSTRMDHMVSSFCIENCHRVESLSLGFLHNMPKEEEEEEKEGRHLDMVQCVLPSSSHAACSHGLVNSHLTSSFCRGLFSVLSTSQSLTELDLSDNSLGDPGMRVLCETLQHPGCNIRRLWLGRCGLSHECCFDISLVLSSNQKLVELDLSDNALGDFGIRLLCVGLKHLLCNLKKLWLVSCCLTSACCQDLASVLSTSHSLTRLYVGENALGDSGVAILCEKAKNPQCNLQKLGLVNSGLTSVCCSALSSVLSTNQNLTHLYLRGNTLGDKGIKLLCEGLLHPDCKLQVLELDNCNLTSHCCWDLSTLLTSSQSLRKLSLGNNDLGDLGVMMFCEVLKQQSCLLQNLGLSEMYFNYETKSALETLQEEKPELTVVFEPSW

Structure (SMILES): CN(CC(=O)N1CCc2ccccc2C1)c1ccccc1
- IC50 [1]: > 100 µM (inactive)

Structure (SMILES): COC(=O)\C(C(C)=O)=C(/C=C/C=C/C=C/N(C)C)N(C)C
- AC50 (Cytochrome P450 2C9): 15.8 µM (inconclusive)
- IC50 [2]: 8.38 µM (active)
- AC50 (Cytochrome P450 2C19): 14.1 µM (inconclusive)
- CC50 [3]: > 40 µM (active)
- AC50 (HeLa): 274 µM (active)

Structure (SMILES): COc1ccc(-c2csc(Nc3ccc(N)cc3)n2)cc1OC
- Ki [4]: 71.1 µM (inactive)

Structure (SMILES): COc1cc(NC(=O)c2cc(C3CC3)on2)cc(OC)c1
- EC50 [5]: > 5.57 µM (inactive)

Structure (SMILES): Cc1ccc(NC(=O)CCCOc2cc(=O)n(C)c3ccccc23)c(Cl)c1
- EC50 (Wee1-like protein kinase): > 49.7 µM (inactive)
- EC50 [6]: > 49.7 µM (inactive)

Structure (SMILES): CC[C@H](CO)Nc1nc(Nc2cccc(Cl)c2)c2ncn(C(C)C)c2n1
- AC50 [7]: 6.4 µM (active)
- IC50 [8]: > 20 µM (inactive)
- AC50 [9]: 0.275 µM (active)

Structure (SMILES): N#Cc1ccc(NC(=O)c2ccccn2)cc1C(F)(F)F
- EC50 [10]: 1.77 µM (active)
